The structures appear in SMILES notation.

The first experiment deals with T1, Signal transducer and activator of transcription 5B (Homo sapiens, UniProt P51692).
T1 sequence (P51692 whole entry): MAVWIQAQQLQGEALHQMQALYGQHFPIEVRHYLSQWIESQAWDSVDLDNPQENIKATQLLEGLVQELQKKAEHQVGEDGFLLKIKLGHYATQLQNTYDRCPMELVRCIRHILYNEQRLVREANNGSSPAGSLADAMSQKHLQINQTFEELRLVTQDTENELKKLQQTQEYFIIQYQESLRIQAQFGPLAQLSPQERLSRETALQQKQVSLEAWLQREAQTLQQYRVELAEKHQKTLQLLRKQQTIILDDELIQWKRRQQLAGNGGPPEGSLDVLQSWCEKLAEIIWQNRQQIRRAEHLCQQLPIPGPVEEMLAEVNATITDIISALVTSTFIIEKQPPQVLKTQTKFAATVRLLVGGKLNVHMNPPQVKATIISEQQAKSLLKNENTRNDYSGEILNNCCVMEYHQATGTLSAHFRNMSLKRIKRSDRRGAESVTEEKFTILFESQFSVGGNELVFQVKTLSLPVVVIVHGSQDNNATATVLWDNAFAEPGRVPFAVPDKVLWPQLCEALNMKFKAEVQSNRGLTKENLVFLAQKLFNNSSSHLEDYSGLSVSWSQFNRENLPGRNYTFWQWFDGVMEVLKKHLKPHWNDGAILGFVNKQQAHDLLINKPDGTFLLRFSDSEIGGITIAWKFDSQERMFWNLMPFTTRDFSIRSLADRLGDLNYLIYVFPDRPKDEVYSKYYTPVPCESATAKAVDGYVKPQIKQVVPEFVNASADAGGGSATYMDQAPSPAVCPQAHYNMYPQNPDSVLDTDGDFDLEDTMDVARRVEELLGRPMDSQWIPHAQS
As to the kind of experiment: Binding affinity to STAT5B (unknown origin) assessed as inhibition constant by FP assay.
As to `C/C(=C\C(=O)N[C@H](C(=O)N1CCC[C@H]1C(=O)N1CCCc2ccccc21)C(C)(C)C)c1ccc(C(F)(F)P(=O)(O)O)cc1`, the inhibitory constant (Ki) – broadly, the dissociation constant of the complex between target and ligand, obtained from inhibition or displacement – was more than 10 µM. Take `CC(C)(C)[C@H](NC(=O)c1cc2cc(C(F)(F)P(=O)(O)O)ccc2s1)C(=O)N1CCC[C@H]1C(=O)N1CCC2(CCC2)C1`: the Ki is more than 10 µM. Still for that read-out and setting: under `CN(C)C(=O)CCN(C(=O)[C@@H]1CCCN1C(=O)[C@@H](NC(=O)c1cc2cc(C(F)(F)P(=O)(O)O)ccc2s1)C(C)(C)C)c1ccc(Br)cc1` stands 2.1 µM; under `CC(C)(C)[C@H](NC(=O)c1cc2cc(C(F)(F)P(=O)(O)O)ccc2s1)C(=O)N1CCC[C@H]1C(=O)N1CCCOCC1`, more than 10 µM.

In the case of `CN(C)C(=O)CCN(C(=O)[C@@H]1CCCN1C(=O)[C@@H](NC(=O)c1cc2cc(C(F)(F)P(=O)(O)O)ccc2s1)C(C)(C)C)c1ccc2scnc2c1`, the inhibition constant (Ki) turned out to be 1.3 µM. The same measure, in the same setting: the same measure for `CN(C)C(=O)CCN(C(=O)[C@@H]1CCCN1C(=O)[C@@H](NC(=O)c1cc2cc(C(F)(F)P(=O)(O)O)ccc2s1)C(C)(C)C)c1ccccc1`: 6.8 µM. In the case of `CN(C)C(=O)CCN(C(=O)[C@@H]1CCCN1C(=O)[C@@H](NC(=O)c1cc2cc(C(F)(F)P(=O)(O)O)ccc2s1)C(C)(C)C)c1ccc2occc2c1`, the Ki worked out at 2 µM. As to `CN(C(=O)[C@@H]1CCCN1C(=O)[C@@H](NC(=O)c1cc2cc(C(F)(F)P(=O)(O)O)ccc2s1)C(C)(C)C)c1ccccc1`, the Ki came out at 6.2 µM. Same read-out and setting: the same measure for `CC(C)(C)[C@H](NC(=O)c1cc2cc(C(F)(F)P(=O)(O)O)ccc2s1)C(=O)N1CCC[C@H]1C(=O)N1CCCc2ccccc21`: 6.2 µM; for `CN(C)C(=O)CCN(C(=O)[C@@H]1CCCN1C(=O)[C@@H](NC(=O)c1cc2cc(C(F)(F)P(=O)(O)O)ccc2s1)C(C)(C)C)c1cccc(Br)c1`: 7 µM; for `CN(C)C(=O)CCN(C(=O)[C@@H]1CCCN1C(=O)[C@@H](NC(=O)c1cc2cc(C(F)(F)P(=O)(O)O)ccc2s1)C(C)(C)C)c1ccc(Cl)cc1`: 4.2 µM. Regarding `CC(C)(C)[C@H](NC(=O)c1cc2cc(C(F)(F)P(=O)(O)O)ccc2s1)C(=O)N1CCC[C@H]1C(=O)Nc1ccccc1`, the Ki was more than 10 µM.

A further experiment has as its target T2, Signal transducer and activator of transcription 5A (Homo sapiens, UniProt P42229).
T2 sequence (P42229 whole entry): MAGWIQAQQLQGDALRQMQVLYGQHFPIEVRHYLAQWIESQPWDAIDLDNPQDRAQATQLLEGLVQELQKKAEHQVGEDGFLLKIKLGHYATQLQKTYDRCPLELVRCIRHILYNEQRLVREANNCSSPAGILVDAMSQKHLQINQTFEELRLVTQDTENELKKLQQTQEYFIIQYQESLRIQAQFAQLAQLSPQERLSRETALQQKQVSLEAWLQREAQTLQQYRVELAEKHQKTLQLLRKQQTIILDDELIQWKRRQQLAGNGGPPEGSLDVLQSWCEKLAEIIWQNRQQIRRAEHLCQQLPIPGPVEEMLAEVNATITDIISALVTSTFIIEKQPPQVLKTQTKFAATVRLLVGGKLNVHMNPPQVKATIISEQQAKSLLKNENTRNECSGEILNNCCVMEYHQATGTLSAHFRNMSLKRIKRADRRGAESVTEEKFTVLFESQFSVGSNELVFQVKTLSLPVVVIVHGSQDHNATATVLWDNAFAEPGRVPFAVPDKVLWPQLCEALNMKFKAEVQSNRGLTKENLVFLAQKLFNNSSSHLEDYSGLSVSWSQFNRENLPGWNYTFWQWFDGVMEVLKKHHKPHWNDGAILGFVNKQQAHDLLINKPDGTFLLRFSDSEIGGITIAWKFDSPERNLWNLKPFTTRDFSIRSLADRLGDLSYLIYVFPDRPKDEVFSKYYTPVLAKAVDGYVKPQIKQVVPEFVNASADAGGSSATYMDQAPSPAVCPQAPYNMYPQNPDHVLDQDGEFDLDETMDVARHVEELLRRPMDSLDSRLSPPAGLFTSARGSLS
The experiment is described as follows: Induction of STAT5 degradation in human SKNO-1 cells measured for 18 hrs by Western blot analysis. The format is cell-based. In general terms: Immunoblotting shows a protein as a band on a membrane.
Turning to `CC(C)(C)[C@H](NC(=O)c1cc2cc(C(F)(F)P(=O)(O)O)ccc2s1)C(=O)N1CCC[C@H]1C(=O)N(CCC(=O)NCCCC#Cc1cccc2c1CN(C1CCC(=O)NC1=O)C2=O)c1ccc(-c2cccs2)cc1` (stereo not given in full), the 50% degradation concentration (DC50) (commonly the midpoint of the concentration-degradation curve) came out at 0.21 µM.

Consider `CC(C)(C)[C@H](NC(=O)c1cc2cc(C(F)(F)P(=O)(O)O)ccc2s1)C(=O)N1CCC[C@H]1C(=O)N(CCC(=O)NCCCC#Cc1cccc2c1CN(C1CCC(=O)NC1=O)C2=O)c1ccc2ccccc2c1` (stereo not given in full), for which the DC50 is 0.21 µM.

For the molecule `CC(C)(C)[C@H](NC(=O)c1cc2cc(C(F)(F)P(=O)(O)O)ccc2s1)C(=O)N1CCC[C@H]1C(=O)N(CCC(=O)NCCCC#Cc1cccc2c1CN(C1CCC(=O)NC1=O)C2=O)c1ccc(Cl)cc1` (stereo not given in full), half-maximal degradation (DC50) was put at 2.1 µM. Same read-out and setting: under `CC(C)(C)[C@H](NC(=O)c1cc2cc(C(F)(F)P(=O)(O)O)ccc2s1)C(=O)N1CCC[C@H]1C(=O)N(CCC(=O)NCCCC#Cc1cccc2c1CN(C1CCC(=O)NC1=O)C2=O)c1ccc(-c2nccs2)cc1` (stereo not given in full) stands 0.13 µM; under `CC(C)(C)[C@H](NC(=O)c1cc2cc(C(F)(F)P(=O)(O)O)ccc2s1)C(=O)N1CCC[C@H]1C(=O)N(CCC(=O)NCCCC#Cc1cccc2c1CN(C1CCC(=O)NC1=O)C2=O)c1ccc(C(F)(F)F)cc1` (stereo not given in full), 2 µM. On to `CN(CCCC#Cc1cccc2c1CN(C1CCC(=O)NC1=O)C2=O)C(=O)CCN(C(=O)[C@@H]1CCCN1C(=O)[C@@H](NC(=O)c1cc2cc(C(F)(F)P(=O)(O)O)ccc2s1)C(C)(C)C)c1ccc2ccccc2c1` (stereo not given in full), for which it took 0.13 µM to reach half-maximal degradation (DC50).

`CC(C)(C)[C@H](NC(=O)c1cc2cc(C(F)(F)P(=O)(O)O)ccc2s1)C(=O)N1CCC[C@H]1C(=O)N(CCC(=O)NCCCC#Cc1cccc2c1CN(C1CCC(=O)NC1=O)C2=O)c1ccc(S(C)(=O)=O)cc1` (stereo not given in full) displayed a DC50 of more than 5 µM. Still for that read-out and setting: the same measure for `CC(C)(C)[C@H](NC(=O)c1cc2cc(C(F)(F)P(=O)(O)O)ccc2s1)C(=O)N1CCC[C@H]1C(=O)N(CCCCCCCC#Cc1cccc2c1CN(C1CCC(=O)NC1=O)C2=O)c1ccc(-c2nccs2)cc1` (stereo not given in full): more than 5 µM; for `CC(C)(C)[C@H](NC(=O)c1cc2cc(C(F)(F)P(=O)(O)O)ccc2s1)C(=O)N1CCC[C@H]1C(=O)N(CCC(=O)NCCCC#Cc1cccc2c1CN(C1CCC(=O)NC1=O)C2=O)c1ccc2occc2c1` (stereo not given in full): 0.33 µM. The same measure, in the same setting: the same measure for `Cc1ccc(N(CCC(=O)NCCCC#Cc2cccc3c2CN(C2CCC(=O)NC2=O)C3=O)C(=O)[C@@H]2CCCN2C(=O)[C@@H](NC(=O)c2cc3cc(C(F)(F)P(=O)(O)O)ccc3s2)C(C)(C)C)cc1` (stereo not given in full): 0.31 µM; for `CC(C)(C)[C@H](NC(=O)c1cc2cc(C(F)(F)P(=O)(O)O)ccc2s1)C(=O)N1CCC[C@H]1C(=O)N(CCC(=O)NCCCC#Cc1cccc2c1CN(C1CCC(=O)NC1=O)C2=O)c1cccc(C(F)(F)F)c1` (stereo not given in full): more than 5 µM; for `CC(C)(C)[C@H](NC(=O)c1cc2cc(C(F)(F)P(=O)(O)O)ccc2s1)C(=O)N1CCC[C@H]1C(=O)N(CCC(=O)NCCCC#Cc1cccc2c1CN(C1CCC(=O)NC1=O)C2=O)c1cccc(C#N)c1` (stereo not given in full): more than 5 µM. Same read-out and setting: the same measure for `CC(C)(C)[C@H](NC(=O)c1cc2cc(C(F)(F)P(=O)(O)O)ccc2s1)C(=O)N1CCC[C@H]1C(=O)N(CCC(=O)NCCCC#Cc1cccc2c1CN(C1CCC(=O)NC1=O)C2=O)c1ccc(I)cc1` (stereo not given in full): 0.53 µM; for `CN(CCCC#Cc1cccc2c1CN(C1CCC(=O)NC1=O)C2=O)C(=O)CCN(C(=O)[C@@H]1CCCN1C(=O)[C@@H](NC(=O)c1cc2cc(C(F)(F)P(=O)(O)O)ccc2s1)C(C)(C)C)c1ccc2occc2c1` (stereo not given in full): 0.2 µM. `CN(CCCC#Cc1cccc2c1CN(C1CCC(=O)NC1=O)C2=O)C(=O)CCN(C(=O)[C@@H]1CCCN1C(=O)[C@@H](NC(=O)c1cc2cc(C(F)(F)P(=O)(O)O)ccc2s1)C(C)(C)C)c1ccc2scnc2c1` (stereo not given in full): it took 0.33 µM to reach half-maximal degradation (DC50). `CC(C)(C)[C@H](NC(=O)c1cc2cc(C(F)(F)P(=O)(O)O)ccc2s1)C(=O)N1CCC[C@H]1C(=O)N(CCC(=O)NCCCC#Cc1cccc2c1CN(C1CCC(=O)NC1=O)C2=O)c1ccc(C#N)cc1` (stereo not given in full) returned a half-maximal degradation concentration (DC50) of more than 5 µM.

On to `CC(C)(C)[C@H](NC(=O)c1cc2cc(C(F)(F)P(=O)(O)O)ccc2s1)C(=O)N1CCC[C@H]1C(=O)N(CCC(=O)NCCCC#Cc1cccc2c1CN(C1CCC(=O)NC1=O)C2=O)c1ccccc1` (stereo not given in full), for which the DC50 is more than 5 µM. On the same count and under the same terms, the same measure for `CC(C)(C)c1ccc(N(CCC(=O)NCCCC#Cc2cccc3c2CN(C2CCC(=O)NC2=O)C3=O)C(=O)[C@@H]2CCCN2C(=O)[C@@H](NC(=O)c2cc3cc(C(F)(F)P(=O)(O)O)ccc3s2)C(C)(C)C)cc1` (stereo not given in full): more than 5 µM. Still for that read-out and setting: under `CC(C)(C)[C@H](NC(=O)c1cc2cc(C(F)(F)P(=O)(O)O)ccc2s1)C(=O)N1CCC[C@H]1C(=O)N(CCC(=O)NCCCC#Cc1cccc2c1CN(C1CCC(=O)NC1=O)C2=O)c1ccc(Cl)c(F)c1` (stereo not given in full) stands more than 5 µM; under `CN(CCCC#Cc1cccc2c1CN(C1CCC(=O)NC1=O)C2=O)C(=O)CCN(C(=O)[C@@H]1CCCN1C(=O)[C@@H](NC(=O)c1cc2cc(C(F)(F)P(=O)(O)O)ccc2s1)C(C)(C)C)c1ccc2sccc2c1` (stereo not given in full), 0.13 µM; under `CC(C)(C)[C@H](NC(=O)c1cc2cc(C(F)(F)P(=O)(O)O)ccc2s1)C(=O)N1CCC[C@H]1C(=O)N(CCC(=O)NCCCC#Cc1cccc2c1CN(C1CCC(=O)NC1=O)C2=O)c1ccc2ncsc2c1` (stereo not given in full), more than 5 µM. On the same count and under the same terms, under `CC(C)(C)[C@H](NC(=O)c1cc2cc(C(F)(F)P(=O)(O)O)ccc2s1)C(=O)N1CCC[C@H]1C(=O)N(CCC(=O)NCCCC#Cc1cccc2c1CN(C1CCC(=O)NC1=O)C2=O)c1cccc2sccc12` (stereo not given in full) stands more than 5 µM; under `CC(C)(C)[C@H](NC(=O)c1cc2cc(C(F)(F)P(=O)(O)O)ccc2s1)C(=O)N1CCC[C@H]1C(=O)N(CCC(=O)NCCCC#Cc1cccc2c1CN(C1CCC(=O)NC1=O)C2=O)c1ccc(F)cc1` (stereo not given in full), more than 5 µM.

Source of the values: ChEMBL document CHEMBL5380794, “Discovery of a Potent and Selective STAT5 PROTAC Degrader with Strong Antitumor Activity In Vivo in Acute Myeloid Leukemia” (J Med Chem, 2023).
